What all share (assay): cell-based
For one experiment, the target named is T1, rα7 nAChR (Rattus norvegicus, UniProt Q05941).
T1 construct: expressed in transfected cells; host or cells: Xenopus laevis oocytes injected with cRNA

The next experiment addresses T2, rα3β2 nAChR (Rattus norvegicus, UniProt P04757+P12390).
T2 construct: expressed in transfected cells; host or cells: Xenopus laevis oocytes injected with cRNA
To be noted: for inhibition at 10 µM: read-out: inhibition of rα3β2 at 10 μM.

The next experiment addresses T3, rα3β4 nAChR (Rattus norvegicus, UniProt P04757+P12392).
T3 construct: expressed in transfected cells; host or cells: Xenopus laevis oocytes injected with cRNA
The note with it: for inhibition at 10 µM: read-out: inhibition of rα3β4 at 10 μM.

Positions of bridges follow the written chain, without caps; N, C: chain ends. Non-standard residues stand in square brackets, D forms with d. Residues, ends and D or L forms follow the SMILES beside them. Hyp = O=C(O)[C@@H]1C[C@@H](O)CN1

The text below walks through data of paper PMC11433573 (Marine Drugs, 2024).

For orientation: IC50 means the midpoint of a concentration-inhibition curve. Higher therefore signals lower potency. One may read the inhibition as the percentage by which the read-out fell short of the control.

T1 sequence (Q05941 23-502): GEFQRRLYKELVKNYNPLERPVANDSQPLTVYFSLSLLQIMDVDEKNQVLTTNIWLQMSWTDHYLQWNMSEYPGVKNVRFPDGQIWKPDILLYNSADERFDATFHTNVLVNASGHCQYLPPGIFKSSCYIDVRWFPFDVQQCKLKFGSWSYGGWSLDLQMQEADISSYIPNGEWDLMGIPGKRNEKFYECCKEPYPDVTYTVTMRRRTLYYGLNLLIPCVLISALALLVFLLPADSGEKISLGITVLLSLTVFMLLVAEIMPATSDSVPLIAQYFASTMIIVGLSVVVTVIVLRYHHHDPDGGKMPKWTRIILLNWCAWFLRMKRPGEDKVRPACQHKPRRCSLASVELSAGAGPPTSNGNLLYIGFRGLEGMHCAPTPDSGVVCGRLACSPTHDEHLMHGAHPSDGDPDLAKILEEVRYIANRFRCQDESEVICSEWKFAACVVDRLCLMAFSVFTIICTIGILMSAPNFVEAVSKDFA
T2 sequence (P04757 26-499): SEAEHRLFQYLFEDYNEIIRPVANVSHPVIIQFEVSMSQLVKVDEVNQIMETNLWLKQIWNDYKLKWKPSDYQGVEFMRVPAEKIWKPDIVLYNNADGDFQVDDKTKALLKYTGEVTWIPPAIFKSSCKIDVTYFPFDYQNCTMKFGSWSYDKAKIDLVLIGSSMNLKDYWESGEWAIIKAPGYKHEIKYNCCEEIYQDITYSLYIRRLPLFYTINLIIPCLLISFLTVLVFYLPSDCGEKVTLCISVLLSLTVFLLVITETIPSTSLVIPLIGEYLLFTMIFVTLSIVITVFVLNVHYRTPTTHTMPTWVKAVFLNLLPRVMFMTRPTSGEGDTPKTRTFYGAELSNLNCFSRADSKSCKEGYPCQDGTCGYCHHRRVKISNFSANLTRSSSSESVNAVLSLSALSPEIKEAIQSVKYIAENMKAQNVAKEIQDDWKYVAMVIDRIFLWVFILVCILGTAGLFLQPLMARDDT
T2 sequence (P12390 25-500): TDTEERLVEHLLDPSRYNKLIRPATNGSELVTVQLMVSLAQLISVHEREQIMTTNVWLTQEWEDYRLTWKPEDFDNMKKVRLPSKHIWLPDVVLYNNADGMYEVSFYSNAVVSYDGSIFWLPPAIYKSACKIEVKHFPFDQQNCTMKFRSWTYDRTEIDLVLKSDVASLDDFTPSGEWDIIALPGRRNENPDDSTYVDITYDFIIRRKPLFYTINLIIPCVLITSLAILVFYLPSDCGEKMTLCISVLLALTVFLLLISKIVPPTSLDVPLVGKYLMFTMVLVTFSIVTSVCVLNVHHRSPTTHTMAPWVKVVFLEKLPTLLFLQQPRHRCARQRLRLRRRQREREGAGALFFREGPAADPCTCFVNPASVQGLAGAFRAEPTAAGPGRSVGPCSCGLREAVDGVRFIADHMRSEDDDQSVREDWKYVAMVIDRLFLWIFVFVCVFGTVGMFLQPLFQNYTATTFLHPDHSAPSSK
T3 sequence (P04757 26-499): as the sequence (P04757 26-499) above
T3 sequence (P12392 22-495 limits assumed): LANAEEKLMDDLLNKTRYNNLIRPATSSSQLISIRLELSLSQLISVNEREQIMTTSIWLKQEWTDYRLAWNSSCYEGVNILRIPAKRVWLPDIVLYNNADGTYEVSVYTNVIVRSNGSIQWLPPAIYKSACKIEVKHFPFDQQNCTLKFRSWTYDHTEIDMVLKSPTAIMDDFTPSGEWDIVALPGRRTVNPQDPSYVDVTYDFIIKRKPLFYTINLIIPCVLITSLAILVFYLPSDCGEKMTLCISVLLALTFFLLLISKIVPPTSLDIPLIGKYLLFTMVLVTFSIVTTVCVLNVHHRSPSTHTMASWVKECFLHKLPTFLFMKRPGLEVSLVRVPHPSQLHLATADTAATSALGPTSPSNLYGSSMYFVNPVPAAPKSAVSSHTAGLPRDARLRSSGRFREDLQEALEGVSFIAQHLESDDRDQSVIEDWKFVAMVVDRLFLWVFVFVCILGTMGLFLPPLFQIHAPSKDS

Turning to `CC[C@H](C)[C@@H]1NC(=O)[C@H](Cc2c[nH]cn2)NC(=O)[C@@H]2CCCN2C(=O)[C@H](CC(N)=O)NC(=O)[C@H](CC(N)=O)NC(=O)[C@H](C(C)C)NC(=O)[C@H](CC(N)=O)NC(=O)[C@@H]2CSSC[C@H](NC(=O)CN)C(=O)N[C@@H](CSSC[C@@H](C(N)=O)NC1=O)C(=O)N[C@@H](CO)C(=O)NCC(=O)N1CCC[C@H]1C(=O)N[C@@H](C)C(=O)N2` [[H5G]RegIIA] (H-GCCSGPACNVNNPHIC-NH2; disulfide 2-8, 3-16), the IC50 is 3540 nM against rα7 nAChR, above 10000 nM at rα3β2 nAChR and above 10000 nM against rα3β4 nAChR.
`CC[C@H](C)[C@@H]1NC(=O)[C@H](Cc2c[nH]cn2)NC(=O)[C@@H]2CCCN2C(=O)[C@H](CC(N)=O)NC(=O)[C@H](CC(N)=O)NC(=O)[C@H](C(C)C)NC(=O)[C@H](CC(N)=O)NC(=O)[C@@H]2CSSC[C@H](NC(=O)CN)C(=O)N[C@@H](CSSC[C@@H](C(N)=O)NC1=O)C(=O)N[C@@H](CO)C(=O)N[C@@H](CC(C)C)C(=O)N1CCC[C@H]1C(=O)N[C@@H](C)C(=O)N2` [[H5L]RegIIA] (H-GCCSLPACNVNNPHIC-NH2; disulfide 2-8, 3-16): the half-inhibitory concentration (IC50) against rα7 nAChR, at rα3β2 nAChR and against rα3β4 nAChR was above 10000 nM each time.
Regarding `CC[C@H](C)[C@@H]1NC(=O)[C@H](Cc2c[nH]cn2)NC(=O)[C@@H]2CCCN2C(=O)[C@H](CC(N)=O)NC(=O)[C@H](CC(N)=O)NC(=O)[C@H](C(C)C)NC(=O)[C@H](CC(N)=O)NC(=O)[C@@H]2CSSC[C@H](NC(=O)CN)C(=O)N[C@@H](CSSC[C@@H](C(N)=O)NC1=O)C(=O)N[C@@H](CO)C(=O)N[C@@H](C(C)C)C(=O)N1CCC[C@H]1C(=O)N[C@@H](C)C(=O)N2` [[H5V]RegIIA] (H-GCCSVPACNVNNPHIC-NH2; disulfide 2-8, 3-16), the figures for the half-inhibitory concentration (IC50) against rα7 nAChR, against rα3β2 nAChR and on rα3β4 nAChR were 97 nM, above 10000 nM and 8800 nM, respectively.
The like results for `CC[C@H](C)[C@@H]1NC(=O)[C@H](Cc2c[nH]cn2)NC(=O)[C@@H]2CCCN2C(=O)[C@H](CC(N)=O)NC(=O)[C@H](CC(N)=O)NC(=O)[C@H](C(C)C)NC(=O)[C@H](CC(N)=O)NC(=O)[C@@H]2CSSC[C@H](NC(=O)CN)C(=O)N[C@@H](CSSC[C@@H](C(N)=O)NC1=O)C(=O)N[C@@H](CO)C(=O)N[C@@H](Cc1c[nH]cn1)C(=O)N1C[C@H](O)C[C@H]1C(=O)N[C@@H](C)C(=O)N2` [[P6O]RegIIA] (H-GCCSH[Hyp]ACNVNNPHIC-NH2; disulfide 2-8, 3-16) were, in that order, above 10000 nM, above 10000 nM and above 10000 nM.
The matching figures for `CC[C@H](C)[C@@H]1NC(=O)[C@H](Cc2c[nH]cn2)NC(=O)[C@@H]2CCCN2C(=O)[C@H](CC(N)=O)NC(=O)[C@H](CC(N)=O)NC(=O)[C@H](C(C)C)NC(=O)[C@H](CC(N)=O)NC(=O)[C@@H]2CSSC[C@H](NC(=O)CN)C(=O)N[C@@H](CSSC[C@@H](C(N)=O)NC1=O)C(=O)N[C@@H](CO)C(=O)N[C@@H](CO)C(=O)N1CCC[C@H]1C(=O)N[C@@H](C)C(=O)N2` [[H5S]RegIIA] (H-GCCSSPACNVNNPHIC-NH2; disulfide 2-8, 3-16): 100 nM, above 10000 nM and 5730 nM.
Take `CC[C@H](C)[C@@H]1NC(=O)[C@H](Cc2c[nH]cn2)NC(=O)[C@@H]2CCCN2C(=O)[C@H](CC(N)=O)NC(=O)[C@H](CC(N)=O)NC(=O)[C@H](C(C)C)NC(=O)[C@H](CC(N)=O)NC(=O)[C@@H]2CSSC[C@H](NC(=O)[C@H](C)N)C(=O)N[C@@H](CSSC[C@@H](C(N)=O)NC1=O)C(=O)N[C@@H](CO)C(=O)N[C@@H](Cc1c[nH]cn1)C(=O)N1CCC[C@H]1C(=O)N[C@@H](C)C(=O)N2` [[G1A]RegIIA] (H-ACCSHPACNVNNPHIC-NH2; disulfide 2-8, 3-16): the figures for the IC50 against rα7 nAChR, against rα3β2 nAChR and on rα3β4 nAChR were 286 nM, 90 nM and 132 nM, respectively.
Take `CC[C@H](C)[C@@H]1NC(=O)[C@H](Cc2c[nH]cn2)NC(=O)[C@@H]2CCCN2C(=O)[C@H](CC(N)=O)NC(=O)[C@H](CC(N)=O)NC(=O)[C@H](C(C)C)NC(=O)[C@H](CC(N)=O)NC(=O)[C@@H]2CSSC[C@H](NC(=O)CN)C(=O)N[C@@H](CSSC[C@@H](C(N)=O)NC1=O)C(=O)N[C@@H](CO)C(=O)N[C@@H](Cc1c[nH]cn1)C(=O)N[C@@H](C)C(=O)N[C@@H](C)C(=O)N2` [[P6A]RegIIA] (H-GCCSHAACNVNNPHIC-NH2; disulfide 2-8, 3-16): the IC50 against rα7 nAChR is 459 nM; against rα3β2 nAChR, above 10000 nM; on rα3β4 nAChR, above 10000 nM. Also, the inhibition at 10 µM on rα3β2 nAChR and on rα3β4 nAChR was below 50% each time.
For `CC[C@H](C)[C@@H]1NC(=O)[C@H](Cc2c[nH]cn2)NC(=O)[C@@H]2CCCN2C(=O)[C@H](CC(N)=O)NC(=O)[C@H](CC(N)=O)NC(=O)[C@H](C(C)C)NC(=O)[C@H](CC(N)=O)NC(=O)[C@@H]2CSSC[C@H](NC(=O)CN)C(=O)N[C@@H](CSSC[C@@H](C(N)=O)NC1=O)C(=O)N[C@@H](C)C(=O)N[C@@H](Cc1c[nH]cn1)C(=O)N1CCC[C@H]1C(=O)N[C@@H](C)C(=O)N2` [[S4A]RegIIA] (H-GCCAHPACNVNNPHIC-NH2; disulfide 2-8, 3-16), the 50% inhibitory concentration (IC50) against rα7 nAChR was determined as 39 nM; at rα3β2 nAChR it was 34 nM; on rα3β4 nAChR it was 95 nM.
The matching figures for `CC[C@H](C)[C@@H]1NC(=O)[C@H](Cc2cnc[nH]2)NC(=O)[C@@H]2CCCN2C(=O)[C@H](CC(N)=O)NC(=O)[C@H](CC(N)=O)NC(=O)[C@H](C(C)C)NC(=O)[C@H](CC(N)=O)NC(=O)[C@@H]2CSSC[C@H](NC(=O)CN)C(=O)N[C@@H](CSSC[C@@H](C(N)=O)NC1=O)C(=O)N[C@@H](CO)C(=O)N[C@@H](Cc1cnc[nH]1)C(=O)N1CCC[C@H]1C(=O)N[C@@H](C)C(=O)N2` [RegIIA, reference compound] (H-GCCSHPACNVNNPHIC-NH2; disulfide 2-8, 3-16): 43 nM, 36 nM and 102 nM.
Regarding `CC[C@H](C)[C@@H]1NC(=O)[C@H](Cc2c[nH]cn2)NC(=O)[C@@H]2CCCN2C(=O)[C@H](CC(N)=O)NC(=O)[C@H](CC(N)=O)NC(=O)[C@H](C(C)C)NC(=O)[C@H](CC(N)=O)NC(=O)[C@@H]2CSSC[C@H](NC(=O)CN)C(=O)N[C@@H](CSSC[C@@H](C(N)=O)NC1=O)C(=O)N[C@@H](CO)C(=O)N[C@@H](C)C(=O)N1CCC[C@H]1C(=O)N[C@@H](C)C(=O)N2` [[H5A]RegIIA] (H-GCCSAPACNVNNPHIC-NH2; disulfide 2-8, 3-16), the 50% inhibitory concentration (IC50) at rα7 nAChR was 446 nM; against rα3β2 nAChR, above 10000 nM; at rα3β4 nAChR, above 10000 nM. The inhibition at 10 µM at rα3β2 nAChR and at rα3β4 nAChR was below 50% each time.
Take `CC[C@H](C)[C@@H]1NC(=O)[C@H](Cc2c[nH]cn2)NC(=O)[C@@H]2CCCN2C(=O)[C@H](CC(N)=O)NC(=O)[C@H](CC(N)=O)NC(=O)[C@H](C(C)C)NC(=O)[C@H](CC(N)=O)NC(=O)[C@@H]2CSSC[C@H](NC(=O)CN)C(=O)N[C@@H](CSSC[C@@H](C(N)=O)NC1=O)C(=O)N[C@@H](CO)C(=O)N[C@@H](Cc1c[nH]cn1)C(=O)N1CCC[C@H]1C(=O)NCC(=O)N2` [[A7G]RegIIA] (H-GCCSHPGCNVNNPHIC-NH2; disulfide 2-8, 3-16): the 50% inhibitory concentration (IC50) on rα7 nAChR is 600 nM; against rα3β2 nAChR it was above 10000 nM; at rα3β4 nAChR it was 964 nM.
The like results for `CC[C@H](C)[C@@H]1NC(=O)[C@H](Cc2c[nH]cn2)NC(=O)[C@@H]2CCCN2C(=O)[C@H](CC(N)=O)NC(=O)[C@H](CC(N)=O)NC(=O)[C@H](C(C)C)NC(=O)[C@H](CC(N)=O)NC(=O)[C@@H]2CSSC[C@H](NC(=O)CN)C(=O)N[C@@H](CSSC[C@@H](C(N)=O)NC1=O)C(=O)N[C@@H](CO)C(=O)N[C@@H](CCC(=O)O)C(=O)N1CCC[C@H]1C(=O)N[C@@H](C)C(=O)N2` [[H5E]RegIIA] (H-GCCSEPACNVNNPHIC-NH2; disulfide 2-8, 3-16) were, in that order, 441 nM, above 10000 nM and above 10000 nM.
